Data taken from paper PMC8249783, “A novel multikinase inhibitor SKLB‐YTH‐60 ameliorates inflammation and fibrosis in bleomycin‐induced lung fibrosis mouse models” (Cell Proliferation, 2021).
≈ marks a conversion by molar mass, not a printed value. Read-outs that look alike come from different tables or passages of the source.

How the values were obtained:
[1] = Determination of thermodynamic solubility; format: physicochemical; settings: thermodynamic from solid, double testing
Procedure: Weigh about 1 mg of the test compound into 1.5 mL centrifuge tube and add 0.5 mL various solvents, sonicating for 5 minutes (if the compound is completely dissolved, then added again test compound until a little solid remains). Take the supernatant after centrifugation, diluting to a suitable concentration using and measuring absorbance values by UV spectrophotometer. Weigh 10 mg compound accurately of the test compound into 1.5 mL centrifuge tube and add 1.2 mL methanol solution to prepare 8.3 mg·mL^−1 mother solution. Take the above described mother liquor to prepare the solution in concentrations of 8.3, 4.2, 2.1, 1.0, 0.52, 0.26 mg·mL^−1 then measure absorbance value. With concentration c (mg·mL^−1) as the abscissa, absorbance A as the ordinate, mapping and fitting line to get the standard curve (The correlation coefficient should be greater than 0.998). Calculate solubility according to the standard curve of the linear equation.

[2] = test system: lung MDSCs and macrophages; test: Flow cytometry of MDSCs and macrophages in lung tissue of BLM mice; format: in vivo, C57BL/6 mice; settings: 30 mg·kg^−1 i.p.
Procedure: Male C57BL/6 mice (8‐10 weeks old) were purchased from HFK Bioscience Co. Ltd. All animal experiments were permitted by the Institutional Animal Care and Treatment Committee of Sichuan University in China (New Permit Number: 20190524003). Lung fibrosis was induced using BLM treatment (2 mg·kg^−1). All C57BL/6 mice were divided into five groups (n = 10): a BLM + Nintedanib group (Nintedanib, 30 mg·kg^−1), a BLM + YTH‐60 group (YTH‐60, 15 mg·kg^−1 and 30 mg·kg^−1), a control group (Sham), and a bleomycin group (Vehicle). At the beginning, the mice were anaesthetized using 10% chloral hydrate, dissolved BLM with saline and administered intratracheally. To evaluate the preventive effect, the next day after BLM challenge, YTH‐60 and Nintedanib were administered intraperitoneally daily for 13 days (fibroproliferation) to the mice. All mice were sacrificed 24 hours after the last drug injection, the lungs and other organs were taken for the subsequent analysis. To test the therapeutic effect, after the 7th day of BLM treatment, mice were injected intraperitoneally with YTH‐60, Nintedanib and vehicle daily for 7 consecutive days (fibroproliferation).
We analysed the percentage of MDSCs and macrophages by Flow cytometry (FCM). ^22 Use scissors to cut approximately 30 mg of mouse lung tissues into small pieces and use 5 mL of collagenase‐IV with a concentration of 1 mg·mL^−1, digested at 37°C for at least 1 hour. Centrifuge at 400 g for 5 minutes and discard the supernatant. Then, add another 5 mL PBS to resuspend, after precipitation, taken the supernatant and mixed with the corresponding fluorochromium binding antibody, incubate for 30 minutes in the dark at 4°C (MDSCs with PE^−CD11b^−, FITC^−Gr1^− conjugated dual labelling and macrophages with PE^−F4/80^−, FITC^−CD11b^− conjugated dual labelling). The data were acquired with a FACS Canton II NovoCyte (ACEA).

[3] = set-up: method as in PMID 25474320; settings: 50 mg·kg^−1 oral administration; cited from earlier work

`COC(=O)c1ccc2c(c1)NC(=O)/C2=C(\Nc1ccc(N(C)C(=O)CN2CCN(C)CC2)cc1)c1ccccc1` [Nintedanib, reference compound] gave a solubility at 5 min ([1]; organic solvent or mixture, Acetone, read-out: Solubility, Acetone) of 9.83 ± 0.42 mg/mL (≈ 18.2 mM), a solubility at 5 min ([1]; organic solvent or mixture, Acetonitrile, read-out: Solubility, Acetonitrile) of 3.52 ± 0.064 mg/mL (≈ 6.53 mM) and a solubility at 5 min ([1]; organic solvent or mixture, Ethyl acetate, read-out: Solubility, Ethyl acetate) of 9.75 ± 0.35 mg/mL (≈ 18.1 mM). The solubility at 5 min ([1]; organic solvent or mixture, Ethyl alcohol, read-out: Solubility, Ethyl alcohol) was 12.5 ± 2.2 mg/mL (≈ 23.1 mM), the solubility at 5 min ([1]; saline or isotonic, Normal saline, read-out: Solubility, Normal saline) was 1.93 ± 0.18 mg/mL (≈ 3.58 mM) and the solubility at 5 min ([1]; Water, read-out: Solubility, Water) was 0.28 ± 0.015 mg/mL (≈ 0.519 mM). The “percentage of CD11b^+F4/80^+ cells (macrophages) in lung” value ([2]; day 14, BLM group 19.9%, sham 9.9%) was 13.89%, the “percentage of CD11b^+Gr1^+ cells (MDSCs) in lung” value ([2]; day 14, BLM group 20.5%, sham 5.14%) was 10.46% and the mean bioavailability [3] was 11.9%.
